Experimental data reported in patent EP0833899B1, “CIS-9,10-OCTADECENOAMIDASE” (THE SCRIPPS RESEARCH INSTITUTE, priority 1995, dated 1996).
Where two headings read alike, the source gives them in different places.

Columns and labels:
rats = assay: effect on spontaneous behavior (sleep induction) after ip injection; type: in vivo
Method: Synthetic cis-9,10-octadecenoamide was injected (ip) into rats in order to test its effect on spontaneous behavior at different doses: 1 (n=2), 2 (n=2), 5 (n=7), 10 (n=10), 20 (n=2), and 50 (n=2) mg, where n = number of rats tested. […] However, at a threshold of 5 mg and above there was a marked effect consisting of an induction of long-lasting motor quiescence associated with eyes closed, sedated behavior characteristic of normal sleep. Also as with normal sleep, the rats still responded to auditory stimuli with orienting reflex and sustained attention toward the source of stimulation. In addition, motor behavior was impaired. The latency to behavioral sedation following administration was about 4 minutes and subjects were normally active again after 1 hour (5 mg), 2 hour (10 mg), or 2.5 hour (20 mg and 50 mg).
(§1) We have compared cis-9,10-octadecenoamide to vehicle and the synthetic analogs listed in Figure 1 to estimate the structural specificity of its sleep-inducing potential. […] More particularly, male Sprague-Dawley rats (300 g at the time of surgery) were implanted under halothane anesthesia (2-3%) with a standard set of electrodes for sleep recordings. This included two screw electrodes placed in the parietal bone over the hippocampus to record the subjects electroencephalogram (EEG) and two wire electrodes inserted in the neck musculature to record postural tone through electromyographic activity (EMG). Rats were housed individually with at libitum access to food and water. The dark-light cycle was controlled (12:12, lights on a 10:00 p.m.). One week after the surgery, rats were habituated to the recording conditions for at least three days. Upon the completion of the habituation period, rats received 2 milliliter (ip) of either: vehicle (5% ethanol/saline solution), cis-9,10-octadecenoamide (10 mg), or oleic acid (10 mg). […] Sleep recordings were visually scored and four stages were determined: wakefulness, slow-wave-sleep 1 (SWS1), slow-wave-sleep 2 (SWS2), and rapid eye movement (REM) sleep.

male Sprague-Dawley rats = assay: polysomnographic sleep recordings (EEG/EMG) after ip injection; type: in vivo; settings: 10 mg ip, compared to vehicle controls, recorded four hours
Source text: as §1
These increases with respect to slow wave sleep (SWS) were at the expense of waking.

[1] = biological target: T1, cis-9,10-octadecenoamidase, rat brain membrane fraction (Rattus norvegicus, UniProt P97612); type: biochemical; settings: 1 mM inhibitor, 1000 µM
T1 sequence (P97612 1-579): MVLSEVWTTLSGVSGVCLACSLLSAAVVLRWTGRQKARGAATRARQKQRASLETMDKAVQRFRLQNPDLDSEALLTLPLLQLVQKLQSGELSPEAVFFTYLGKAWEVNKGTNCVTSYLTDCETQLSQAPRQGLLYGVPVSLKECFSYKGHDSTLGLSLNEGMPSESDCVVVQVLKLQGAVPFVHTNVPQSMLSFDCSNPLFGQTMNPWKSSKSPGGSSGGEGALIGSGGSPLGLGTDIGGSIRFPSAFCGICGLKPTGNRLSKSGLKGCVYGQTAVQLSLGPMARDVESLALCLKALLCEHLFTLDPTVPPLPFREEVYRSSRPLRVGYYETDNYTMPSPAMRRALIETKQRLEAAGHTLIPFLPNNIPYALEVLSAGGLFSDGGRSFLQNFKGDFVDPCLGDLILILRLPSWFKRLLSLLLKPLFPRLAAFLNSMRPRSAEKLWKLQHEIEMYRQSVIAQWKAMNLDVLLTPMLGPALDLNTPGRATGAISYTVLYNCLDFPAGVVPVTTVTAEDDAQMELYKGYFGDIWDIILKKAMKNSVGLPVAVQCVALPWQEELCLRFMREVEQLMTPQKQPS
Method: In each case the enzymic reaction is performed is a separate reaction vessel and the product is spotted onto a TLC plate.
The following protocol is used for assaying cis-9,10-octadecenoamide hydrolysis activity: To […] of 125 mM Tris·HCl, pH 9.0 was added successively 70 mL protein fraction (1 mg/mL protein concentration for brain membrane fraction, 2 mg/mL for brain soluble fraction, 5 mg/mL for pancreatic microsomal preparation), 6 mL of ethanol, and 4 mL of ^14C-cis-9,10-octadecenoamide (in ethanol, 0.25 mCi/mL). Each reaction mixture is incubated for 4 hours at 37°C and then partitioned between EtOAc and 0.07 M HCl. The EtOAc layer is evaporated to dryness and the remaining residue is dissolved in 15 mL ethanol. TLC fractions are taken from this ethanol stock. TLC plates are treated with EN^3HANCE spray and developed at -78°C for 2 hours.

[2] = biological target: T2, amidase activity which catalyzes both the hydrolysis and synthesis of arachidonylethanolamide (anandamide), membrane subcellular fractions from neuroblastoma, g (Rattus norvegicus, UniProt P97612); settings: 1.5 mM concentration; cited from earlier work
T2 sequence (P97612 1-579): T1 sequence (P97612 1-579)

With `CCCCCCCC/C=C\CCCCCCCC(N)=O` [cis-9,10-octadecenoamide, Cis-9,10-octadecenoamide] the “time after which subjects were normally active again” value (rats; 5 mg ip, rats) was 1 h, the “time after which subjects were normally active again” value (rats; 10 mg ip, rats) was 2 h and the “duration of the biological effect (sleep-inducing properties)” value (rats; 10 mg per rat) was “two”. The “time after which subjects were normally active again” value (rats; 20 mg ip, rats) was 2.5 h, the “time after which subjects were normally active again” value (rats; 50 mg ip, rats) was 2.5 h and the “latency to behavioral sedation following administration” value (rats; ip, rats) was “about 4 minutes”. For the same molecule, the “threshold dose for induction of long-lasting motor quiescence, sedated behavior characteristic of normal sleep” value (rats; ip, rats) was 5 mg, the “effect on spontaneous behavior” value (rats; lower doses (1 and 2 mg), ip, rats) was “no overt effect on spontaneous behavior” and the “mean duration of the SWS individual periods” value (male Sprague-Dawley rats) was “increase”. For the same molecule, the “total time of slow wave sleep (SWS)” value (male Sprague-Dawley rats) was “increase”.
In the case of `CCCCCCCCC/C=C\CCCCCCC(N)=O` [Compound 3, Cis-8,9-octadecenoamide], the “pharmacological effects compared with cis-9,10-octadecenoamide” value (rats; rats) was “substantial reduction in both the degree and duration of the pharmacological effects”.
With `CCCCCCCC/C=C\CCCCCCCCCCCC(N)=O` [Compound 6, Erucamide] the “pharmacological effects compared with cis-9,10-octadecenoamide” value (rats; rats) was “substantial reduction in both the degree and duration of the pharmacological effects”.
With `CCCCCCCC/C=C\CCCCCCCC(=O)O` [oleic acid, Oleic acid, reference compound] the overt behavioral effect (rats; rats, compared with cis-9,10-octadecenoamide) was “nor oleic acid (5) showed any overt behavioral effect”.
For `O=S(=O)(F)Cc1ccccc1` [phenylmethylsulfonyl fluoride], the “inhibition of enzymatic activity (hydrolysis of cis-9,10-octadecenoamide to oleic acid)” value [1] is listed as “completely inhibited”, the “inhibition of enzymatic activity (hydrolysis of cis-9,10-octadecenoamide to oleic acid)” value ([1]; listed as PMSF) is listed as “inhibited” and the “inhibition of the amidase activity (anandamide hydrolysis)” value [2] is listed as “completely inhibited”.
With `CCCCCC/C=C\CCCCCCCCCC(N)=O` [Compound 4, Cis-11,12-octadecenoamide] the “pharmacological effects compared with cis-9,10-octadecenoamide” value (rats; rats) was “substantial reduction in both the degree and duration of the pharmacological effects”.
